Data reported in patent US20080274892A1, “Novel Haloalkylsulfonanilide Derivative, Herbicide, and Method of Use Thereof” (priority 2005, published 2008).

Assays:
false pimpernel [1] = assay: Test Example 2: herbicidal efficacy on rice paddy weeds post-emergence; type: in vivo, Lindernia pyxidaria; settings: 21 days after treatment
barnyard glass = assay: as above; type: in vivo, Echinochloa crus-galli; settings: 21 days after treatment
Source text: The standard of judgment for herbicidal efficacy (degree of growth inhibition) and phytotoxicity 4 . . . 90%-100% of herbicidal efficacy or phytotoxicity 3 . . . 70%-89% of herbicidal efficacy or phytotoxicity 2 . . . 40%-69% of herbicidal efficacy or phytotoxicity 1 . . . 1%-39% of herbicidal efficacy or phytotoxicity 0 . . . 0% of herbicidal efficacy or phytotoxicity
A 75 cm^2 plastic pot was filled with soil (clay loam) and planted seeds of barnyard glass and bulrush which is a rice paddy weed. After covering the top with 75 cm^3 soil mixed with seeds of false pimpernel, the pot was filled with water so that the soil submerged under 5 cm depth of water and kept in a hot house. […] The pot was kept in a hot house for 21 days after the treatment and the herbicidal efficacy was investigated and evaluated according to the standard in Test Example 1 by comparing with the untreated control. “-” in the table represents test not done.

[2] = tested on: paddy rice plant (cultivar: Nihonbare); assay: Test Example 3: phytotoxicity test for transplanted paddy rice plant; type: in vivo; settings: 21 days after treatment; for Phytotoxicity to paddy rice: transplanted rice
How it was run: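 Clay loam soil was placed in a 75 cm^2 plastic pot and flooded to a water depth of 5 cm. Two Nihonbare paddy rice plants at the two-leaf stage were transplanted 1 cm deep and grown in a hot house. After treatment, pots stayed in the hot house for 21 days, and phytotoxicity was then graded against an untreated control.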

bulrush [3] = assay: Test Example 1: herbicidal efficacy on rice paddy weeds pre-emergence; type: in vivo, Scirpus juncoides; settings: 21 days
bulrush [4] = assay: Test Example 2: herbicidal efficacy on rice paddy weeds post-emergence; type: in vivo, Scirpus juncoides; settings: 21 days after treatment
false pimpernel [5] = assay: Test Example 1: herbicidal efficacy on rice paddy weeds pre-emergence; type: in vivo, Lindernia pyxidaria; settings: 21 days
[6] = dosage 300 g/ha, post-emergence, one leaf stage
[7] = dosage 1000 g/ha active ingredient, post-emergence treatment at one leaf stage, vs untreated control
[8] = dosage 1000 g/ha active ingredient, vs untreated control
[9] = dosage 1000 g/ha, post-emergence, one leaf stage
[10] = dosage 1000 g/ha, treated 5 days after transplantation

SMILES	False pimpernel post (herbicidal efficacy grade) (false pimpernel [1]; [6])	Burnyard grass post (herbicidal efficacy grade) (barnyard glass; [6])	Phytotoxicity to paddy rice ([2]; dosage 300 g/ha)	Bulrush pre (herbicidal efficacy grade) (bulrush [3]; dosage 300 g/ha)	Bulrush post (herbicidal efficacy grade) (bulrush [4]; [6])	False pimpernel pre (herbicidal efficacy grade) (false pimpernel [5]; dosage 300 g/ha)	False pimpernel post (herbicidal efficacy grade) (false pimpernel [1]; [9])	Burnyard grass post (herbicidal efficacy grade) (barnyard glass; [9])	Phytotoxicity to paddy rice [2, 10]	Bulrush pre (herbicidal efficacy grade) (bulrush [3]; dosage 1000 g/ha)	Bulrush post (herbicidal efficacy grade) (bulrush [4]; [9])	False pimpernel pre (herbicidal efficacy grade) (false pimpernel [5]; dosage 1000 g/ha)	other results
Cc1c(Cl)ccc(OC(C)C(=O)N(c2ccccc2CN2CC(C)(C)OC2=O)S(=O)(=O)C(F)(F)F)c1Cl (stereo not drawn) [Compound 1-139]	4 (90%-100% of herbicidal efficacy or phytotoxicity)	3 (70%-89% of herbicidal efficacy or phytotoxicity)	3 (70%-89% of herbicidal efficacy or phytotoxicity)	4 (90%-100% of herbicidal efficacy or phytotoxicity)	4 (90%-100% of herbicidal efficacy or phytotoxicity)	4 (90%-100% of herbicidal efficacy or phytotoxicity)							
CCCC1COC(=O)N1Cc1ccccc1NS(=O)(=O)C(F)(F)F (stereo not drawn) [Compound 1-7]	2 (40%-69% of herbicidal efficacy or phytotoxicity)	1 (1%-39% of herbicidal efficacy or phytotoxicity)	1 (1%-39% of herbicidal efficacy or phytotoxicity)	4 (90%-100% of herbicidal efficacy or phytotoxicity)	4 (90%-100% of herbicidal efficacy or phytotoxicity)	4 (90%-100% of herbicidal efficacy or phytotoxicity)							
CC1(C)CN(Cc2cc3c(cc2NS(=O)(=O)C(F)(F)F)OCO3)C(=O)O1 [1-215]													False pimpernel post (herbicidal efficacy grade) (false pimpernel [1]; [7]): 3 (70%-89% of herbicidal efficacy or phytotoxicity); Burnyard grass post (herbicidal efficacy grade) (barnyard glass; [7]): 1 (1%-39% of herbicidal efficacy or phytotoxicity); Phytotoxicity to paddy rice (grade) ([2]; dosage 1000 g/ha active ingredient, treated 5 days after transplantation, vs untreated control): 0 (0% of herbicidal efficacy or phytotoxicity); Bulrush pre (herbicidal efficacy grade) (bulrush [3]; [8]): 2 (40%-69% of herbicidal efficacy or phytotoxicity); Bulrush post (herbicidal efficacy grade) (bulrush [4]; [7]): 2 (40%-69% of herbicidal efficacy or phytotoxicity); False pimpernel pre (herbicidal efficacy grade) (false pimpernel [5]; [8]): 4 (90%-100% of herbicidal efficacy or phytotoxicity)
O=C1OC(c2ccccc2)CN1Cc1ccccc1NS(=O)(=O)C(F)(F)F (stereo not drawn) [Compound 1-41]							2 (40%-69% of herbicidal efficacy or phytotoxicity)	4 (90%-100% of herbicidal efficacy or phytotoxicity)	1 (1%-39% of herbicidal efficacy or phytotoxicity)	4 (90%-100% of herbicidal efficacy or phytotoxicity)	3 (70%-89% of herbicidal efficacy or phytotoxicity)	4 (90%-100% of herbicidal efficacy or phytotoxicity)	
CC(C)COC(=O)N(c1ccccc1CN1CC(C)(CC(C)C)OC1=O)S(=O)(=O)C(F)(F)F (racemic) [Compound 1-104]							4 (90%-100% of herbicidal efficacy or phytotoxicity)	4 (90%-100% of herbicidal efficacy or phytotoxicity)	2 (40%-69% of herbicidal efficacy or phytotoxicity)	4 (90%-100% of herbicidal efficacy or phytotoxicity)	4 (90%-100% of herbicidal efficacy or phytotoxicity)	4 (90%-100% of herbicidal efficacy or phytotoxicity)	
O=C1OC(COc2ccccc2)CN1Cc1ccccc1NS(=O)(=O)C(F)(F)F (racemic) [Compound 1-51]	3 (70%-89% of herbicidal efficacy or phytotoxicity)	0 (0% of herbicidal efficacy or phytotoxicity)	0 (0% of herbicidal efficacy or phytotoxicity)	3 (70%-89% of herbicidal efficacy or phytotoxicity)	4 (90%-100% of herbicidal efficacy or phytotoxicity)	4 (90%-100% of herbicidal efficacy or phytotoxicity)							
CC(C)COC(=O)N(c1ccccc1CN1CC(CNC(=O)OC(C)(C)C)OC1=O)S(=O)(=O)C(F)(F)F (racemic) [Compound 1-107]	1 (1%-39% of herbicidal efficacy or phytotoxicity)	3 (70%-89% of herbicidal efficacy or phytotoxicity)	0 (0% of herbicidal efficacy or phytotoxicity)	4 (90%-100% of herbicidal efficacy or phytotoxicity)	4 (90%-100% of herbicidal efficacy or phytotoxicity)	4 (90%-100% of herbicidal efficacy or phytotoxicity)							
CC(C)COC(=O)N(c1ccccc1CN1C(=O)OCC1C(C)C)S(=O)(=O)C(F)(F)F (stereo not drawn) [Compound 1-10]							4 (90%-100% of herbicidal efficacy or phytotoxicity)	4 (90%-100% of herbicidal efficacy or phytotoxicity)	1 (1%-39% of herbicidal efficacy or phytotoxicity)	4 (90%-100% of herbicidal efficacy or phytotoxicity)	4 (90%-100% of herbicidal efficacy or phytotoxicity)	4 (90%-100% of herbicidal efficacy or phytotoxicity)	
CC(C)CC1(C)CN(Cc2ccccc2NS(=O)(=O)C(F)(F)F)C(=O)O1 (racemic) [Compound 1-103]	4 (90%-100% of herbicidal efficacy or phytotoxicity)	4 (90%-100% of herbicidal efficacy or phytotoxicity)	2 (40%-69% of herbicidal efficacy or phytotoxicity)	4 (90%-100% of herbicidal efficacy or phytotoxicity)	4 (90%-100% of herbicidal efficacy or phytotoxicity)	4 (90%-100% of herbicidal efficacy or phytotoxicity)							
CCCCC1COC(=O)N1Cc1ccccc1N(C(=O)OCC(C)C)S(=O)(=O)C(F)(F)F (stereo not drawn) [Compound 1-12]	2 (40%-69% of herbicidal efficacy or phytotoxicity)	2 (40%-69% of herbicidal efficacy or phytotoxicity)	0 (0% of herbicidal efficacy or phytotoxicity)	4 (90%-100% of herbicidal efficacy or phytotoxicity)	4 (90%-100% of herbicidal efficacy or phytotoxicity)	2 (40%-69% of herbicidal efficacy or phytotoxicity)							
COC1N(Cc2ccccc2NS(=O)(=O)C(F)(F)F)C(=O)OC1(C)C (stereo not drawn) [Compound No. 1-195, 4-methoxy-5,5-dimethyl-3-[2-(trifluoromethanesulfonylamino)benzyl]oxazolidin-2-one]	3 (70%-89% of herbicidal efficacy or phytotoxicity)	1 (1%-39% of herbicidal efficacy or phytotoxicity)	2 (40%-69% of herbicidal efficacy or phytotoxicity)	4 (90%-100% of herbicidal efficacy or phytotoxicity)	4 (90%-100% of herbicidal efficacy or phytotoxicity)	1 (1%-39% of herbicidal efficacy or phytotoxicity)							
O=C1OC2(CCCCC2)CN1Cc1ccccc1NS(=O)(=O)C(F)(F)F [Compound 1-45]							4 (90%-100% of herbicidal efficacy or phytotoxicity)	4 (90%-100% of herbicidal efficacy or phytotoxicity)	2 (40%-69% of herbicidal efficacy or phytotoxicity)	4 (90%-100% of herbicidal efficacy or phytotoxicity)	4 (90%-100% of herbicidal efficacy or phytotoxicity)	4 (90%-100% of herbicidal efficacy or phytotoxicity)	
CC1(COc2ccccc2)CN(Cc2ccccc2NS(=O)(=O)C(F)(F)F)C(=O)O1 (stereo not drawn) [Compound 1-155]	4 (90%-100% of herbicidal efficacy or phytotoxicity)	1 (1%-39% of herbicidal efficacy or phytotoxicity)	1 (1%-39% of herbicidal efficacy or phytotoxicity)	4 (90%-100% of herbicidal efficacy or phytotoxicity)	4 (90%-100% of herbicidal efficacy or phytotoxicity)	4 (90%-100% of herbicidal efficacy or phytotoxicity)							
CC(C)COC(=O)N(c1ccccc1CN1CC2(CCCC2C)OC1=O)S(=O)(=O)C(F)(F)F (stereo not drawn) [Compound 1-161]							4 (90%-100% of herbicidal efficacy or phytotoxicity)	4 (90%-100% of herbicidal efficacy or phytotoxicity)	1 (1%-39% of herbicidal efficacy or phytotoxicity)	4 (90%-100% of herbicidal efficacy or phytotoxicity)	4 (90%-100% of herbicidal efficacy or phytotoxicity)	4 (90%-100% of herbicidal efficacy or phytotoxicity)	
